This is an account of results in patent US20180186769A1, “6-AMINO-5-FLUORO-5-(FLUOROMETHYL)-2,3,4,5-TETRAHYDROPYRIDIN-2-YL-PHENYL-5-(METHOXY-D3)-PYRAZINE-2-CARBOXAMIDES AND FLUORINATED DERIVATIVES THEREOF AS BACE1 INHIBITORS” (H. Lundbeck A/S, priority 2016, published 2018).

One data set relates to P-gp (MDR1). Put plainly: MDCK-MDR1 assay (permeability, efflux ratio). The class given is in vitro ADME. To be noted: dog, Papp BA/Papp AB. The method, then:
The permeability of the test compounds was assessed in MDCK-MDR1 cells that were cultured to confluency (4-6 days) in a 96 transwell plate. Test compounds were diluted with the transport buffer (HBSS+1% BSA) to a concentration of 0.5 μM and applied to the apical or basolateral side of the cell monolayer. Permeation of the test compounds from A to B direction or B to A direction was determined in triplicate over a 60-minute incubation time at 37° C. and 5% CO2 with a relative humidity of 95%. Test compounds were quantified by LC-MS/MS analysis based on the peaks area ratios of analyte/IS in both the receiver and donor wells of the transwell plate.
The apparent permeability coefficient Papp (cm/s) was calculated using the equation: […]
Where dCr/dt is the cumulative concentration of compound in the receiver chamber as a function of time (μM/s); Vr is the solution volume in the receiver chamber (0.05 mL on the apical side; 0.25 mL on the basolateral side); A is the surface area for the transport, i.e. 0.0804 cm^2 for the area of the monolayer; CO is the initial concentration in the donor chamber (μM).
Compounds are classified Pgp substrates when efflux ratio (Papp BA/Papp AB) is ≥2.

Data set [1] deals with T1, BACE1 (Homo sapiens, UniProt P56817). Put plainly: BACE1 efficacy assay (FRET-based). To be noted: 10 μM test compound. Set-up: purchased Life Technologies P2985. The format is biochemical. As for the experimental part:
The efficacy assay was performed as a FRET-based assay using a commercially available BACE1 kit (Life Technologies, P2985). 2 μl test compound at 10 μM (final concentration) and 15 μl BACE1 enzyme from the kit (final concentration 3 nM) were preincubated for 15 minutes at room temperature before addition of 15 μl of substrate from the kit (250 nM final concentration) and incubated for additional 90 minutes at room temperature. The assay plate was subsequently read in a Pherastar (Ex540/Em590). The enzyme activity observed in presence of test compound were normalized to the enzyme activity observed in presence of buffer and 10 μM (final concentration) of the high affinity BACE1 reference inhibitor (S)-6-[3-Chloro-5-(5-prop-1-ynyl-pyridin-3-yl)-thiophen-2-yl]-2-imino-3,6-dimethyl-tetrahydropyrimidin-4-one, respectively. The efficacy of the test compounds was evaluated at 10 μM (final concentration) and defined as the percent inhibition of the enzyme activity using the equation % inhibition=100%−normalized enzyme activity in percent.

Data set [2] deals with T1, BACE1. In words: BACE1 binding assay (SPA-based). The arrangement: biotin (biotinylated form); made in house; host or cells: Freestyle HEK293 cells. To be noted: pH 4.5, 10 nM radioligand. The method, then:
The binding assay was performed as SPA-based assay using a biotinylated form of human BACE1 recombinantly expressed and subsequently purified from Freestyle HEK293 cells. The binding assay was run in a 50 mM sodium acetate buffer, pH 4.5 containing 50 mM NaCl and 0.03% Tween-20 in white clear bottom 384 plates (Corning #3653). […] The plates were incubated for one hour at room temperature and counted in a Wallac Trilux counter. Total and non-specific binding were determined using buffer and 1 μM (final concentration) of the high affinity BACE1 reference inhibitor (S)-6-[3-chloro-5-(5-prop-1-ynyl-pyridin-3-yl)-thiophen-2-yl]-2-imino-3,6-dimethyl-tetrahydro-pyrimidin-4-one, respectively. For each test compound, a IC50 value (the concentration mediating 50% inhibition of the specific binding of the radioligand) was determined from concentration-response curve and used to calculate the Ki from the equation Ki=IC50/(1+L/Kd), where L and Kd are the final concentration of the radioligand used in the assay and the dissociation constant of the radioligand, respectively. The Kd of the radioligand was determined from saturation binding experiments.

The nature of data set [3]: Clearance in hepatocytes, dog. The class given is in vitro ADME. To be noted: read-out: CLint, Dog (L/h/kg) ± SD (converted). The source says:
(§1) Deuterated compounds were compared to their non-deuterated parent counterparts to determine the impact of deuteration on clearance results

The nature of data set [4]: Clearance in microsomes, human. The class given is in vitro ADME. The following applies: read-out: CLint, Human (L/h/kg) ± SD (converted).
Description: as §1

Data set [5] can be described thus: Clearance in microsomes, dog. The class given is in vitro ADME. The following applies: read-out: CLint, Dog (L/h/kg) ± SD (converted).
Description: as §1

Data set [6] in a line: Clearance in microsomes, cyno. The format is in vitro ADME. To be noted: cynomolgus monkey, read-out: CLint, Cyno (L/h/kg) ± SD (converted).
Description: as §1

Data set [7] is described as follows: Clearance in microsomes, rat. The class given is in vitro ADME. To be noted: read-out: CLint, Rat (L/h/kg) ± SD (converted).
Description: as §1

Data set [8] is described as follows: Clearance in hepatocytes, rat. The format is in vitro ADME. The following applies: read-out: CLint, Rat (L/h/kg) ± SD (converted).
Description: as §1

The nature of data set [9]: Clearance in hepatocytes, human. The class given is in vitro ADME. To be noted: read-out: CLint, Human (L/h/kg) ± SD (converted).
Description: as §1

The nature of data set [10]: Clearance in hepatocytes, cyno. The class given is in vitro ADME. The following applies: cynomolgus monkey, read-out: CLint, Cyno (L/h/kg) ± SD (converted).
Description: as §1

T1 sequence (P56817 46-501): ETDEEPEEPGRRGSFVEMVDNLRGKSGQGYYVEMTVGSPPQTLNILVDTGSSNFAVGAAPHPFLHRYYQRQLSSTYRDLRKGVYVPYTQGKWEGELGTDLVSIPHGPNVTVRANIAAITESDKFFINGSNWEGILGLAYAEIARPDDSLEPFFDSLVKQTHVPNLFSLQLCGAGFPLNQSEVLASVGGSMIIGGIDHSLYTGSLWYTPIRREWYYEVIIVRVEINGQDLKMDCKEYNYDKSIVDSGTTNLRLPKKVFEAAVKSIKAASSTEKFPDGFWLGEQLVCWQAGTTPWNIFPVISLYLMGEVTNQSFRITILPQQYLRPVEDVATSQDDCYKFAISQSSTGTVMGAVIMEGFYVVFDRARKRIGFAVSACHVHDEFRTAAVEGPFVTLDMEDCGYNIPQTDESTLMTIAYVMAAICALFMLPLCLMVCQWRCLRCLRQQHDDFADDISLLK

As to `[2H]C([2H])([2H])Oc1cnc(C(=O)Nc2cc(F)c(F)c([C@]3(C)CC[C@](F)(CF)C(N)=N3)c2)cn1` [Example 2, N-[3-[(2S,5R)-6-amino-5-fluoro-5-(fluoromethyl)-2-methyl-2,3,4,5-tetrahydropyridin-2-yl]-4,5-difluoro-phenyl]-5-(methoxy-d3)pyrazine-2-carboxamide], the efflux ratio at 60 min, 0.5 μM in the data set with P-gp (MDR1) was found to be 0.96. Further, the inhibition at 10 µM against BACE1 [1] turned out to be 99%. This compound displayed a Ki on BACE1 [2] of 84 nM.
In the case of `[2H]C([2H])([2H])Oc1cnc(C(=O)Nc2ccc(F)c([C@]3(CF)CC[C@](F)(CF)C(N)=N3)c2)cn1` [Example 3, N-[3-[(2S,5R)-6-amino-5-fluoro-2,5-bis(fluoromethyl)-2,3,4,5-tetrahydropyridin-2-yl]-4-fluoro-phenyl]-5-(methoxy-d3)pyrazine-2-carboxamide], in the data set on P-gp (MDR1), the efflux ratio at 60 min, 0.5 μM was 0.85. This compound had an inhibition at 10 µM against BACE1 [1] of 97%. Besides, the Ki at BACE1 [2] came to 67 nM.
The like results for `[2H]C([2H])([2H])Oc1cnc(C(=O)Nc2ccc(F)c([C@]3(CF)CC[C@@](F)(CF)C(N)=N3)c2)cn1` [Example 4, N-[3-[(2S,5S)-6-amino-5-fluoro-2,5-bis(fluoromethyl)-2,3,4,5-tetrahydropyridin-2-yl]-4-fluoro-phenyl]-5-(methoxy-d3)pyrazine-2-carboxamide] were, in that order, 0.73, 97% and 14 nM.
In the case of `COc1cnc(C(=O)Nc2ccc(F)c([C@]3(C)CC[C@@](F)(CF)C(N)=N3)c2)cn1` [Compound Z], the CLint scaled at 0.1 µM in data set [3] was 112 L/h/kg; in data set [4] (0.1 microM) it was 1 L/h/kg; in data set [5] (0.1 microM), 40 L/h/kg; in data set [6] (0.1 microM), 70 L/h/kg; in data set [7] (0.1 microM), 2.7 L/h/kg; in data set [8] it was 1.7 L/h/kg. Further, the values for the CLint scaled at 0.1 µM in [9] and in data set [10] were 1 L/h/kg and 137 L/h/kg, respectively. Further, the CLint scaled at 0.3 µM in data set [3] was 101 L/h/kg; in [4] (0.3 microM), 0.75 L/h/kg; in [5] (0.3 microM) it was 31 L/h/kg; in [6] (0.3 microM), 61 L/h/kg; in data set [7] (0.3 microM), 1.8 L/h/kg; in [8], 1.5 L/h/kg. In addition, the CLint scaled at 0.3 µM in data set [9] was 0.95 L/h/kg; in data set [10], 135 L/h/kg. In addition, the CLint scaled at 1 µM was 64 L/h/kg in data set [3]; 0.51 L/h/kg in data set [4]; 25 L/h/kg in data set [5]; 34 L/h/kg in data set [6]; 1.3 L/h/kg in data set [7]; 1 L/h/kg in data set [8]. Further, the CLint scaled at 1 µM was 0.72 L/h/kg in data set [9] and 75 L/h/kg in [10].
In the case of `[2H]C([2H])([2H])Oc1ccc(C(=O)Nc2ccc(F)c([C@@]3(C(F)F)N=C(N)CCC3(F)F)c2)nc1` [Compound Y], the CLint scaled at 0.1 µM was 98 L/h/kg in [3], 1.4 L/h/kg in data set [8], less than 0.1 L/h/kg in data set [9] and 80 L/h/kg in [10]. Further, the CLint scaled at 0.3 µM in [3] was 84 L/h/kg; in data set [8], 1 L/h/kg; in data set [9] it was less than 0.1 L/h/kg; in data set [10] it was 32 L/h/kg. In addition, the CLint scaled at 1 µM in [3] was 57 L/h/kg; in data set [4], 0.5 L/h/kg; in data set [5] it was 21 L/h/kg; in data set [6], 12 L/h/kg; in [7] it was 1 L/h/kg; in data set [8] it was 2.1 L/h/kg. The CLint scaled at 1 µM in [9] was 0.29 L/h/kg; in data set [10], 14 L/h/kg.
Take `[2H]C([2H])([2H])Oc1cnc(C(=O)Nc2cc(F)c(F)c([C@]3(C)CC[C@@](F)(CF)C(N)=N3)c2)cn1` [Example 5, N-[3-[(2S,5S)-6-amino-5-fluoro-5-(fluoromethyl)-2-methyl-2,3,4,5-tetrahydropyridin-2-yl]-4,5-difluoro-phenyl]-5-(methoxy-d3)pyrazine-2-carboxamide]: the efflux ratio at 60 min, 0.5 μM in the data set on P-gp (MDR1) was 0.77. On BACE1 [1], this compound registered an inhibition at 10 µM of 100%. Further, on BACE1 [2], the Ki was 9.8 nM.

By efflux ratio is commonly meant the permeability from basolateral to apical divided by that in the opposite direction, in the common usage. Broadly, the inhibition is the relative decrease from the control value, in per cent. A higher inhibition goes with a strong effect. As usually defined, the Ki is a dissociation constant, usually derived from enzyme kinetics or from competition with a known ligand. Read a high Ki as weaker binding.
